The species named for the assay is Rattus norvegicus. Kind of assay: In vitro growth hormone releasing activity was measured in rat pituitary cells. Format: functional, cell-based. The note with it: Pituitary gland cell.

In general, EC50 refers to the concentration needed to bring the measured effect to its halfway point. A low value points to higher potency in that assay.

Take `CCN(CC)CCN1C(=O)C(O)(c2ccc3ccccc3c2)c2c1cc(C(N)=O)cc2C(F)(F)F` (centres undefined): a half-maximal effect (EC50) was put at 18 nM.

`CCN(CC)CCN1C(=O)C(O)(c2cc3ccccc3cc2Cl)c2c1cc(C(N)=O)cc2C(F)(F)F` (centres undefined) gave an EC50 of 3.5 nM.

`CCN(CC)CCN1C(=O)C(O)(c2ccc3ccccc3c2)c2c1cc(C#CCCC(=O)N1CCOCC1)cc2C(F)(F)F` (centres undefined) showed an EC50 of 30 nM.

Compound `CCN(CC)CCN1C(=O)C(O)(c2ccc3ccccc3c2)c2c(Cl)cc(C#CCO)cc21` (centres undefined) showed an EC50 of 310 nM.

Consider `CCN(CC)CCN1C(=O)C(O)(c2ccc3ccccc3c2)c2cccc(Br)c21` (centres undefined), for which the EC50 was more than 1000 nM.

Compound `CCN(CC)CCN1C(=O)C(O)(c2ccc3ccccc3c2)c2c1cc(C#CCCC(N)=O)cc2C(F)(F)F` (centres undefined) came in with an EC50 of 30 nM.

With `CCN(CC)CCN1C(=O)[C@@](O)(c2cc3ccccc3cc2Cl)c2c1cc(C(N)=O)cc2C(F)(F)F`, a half-maximal response (EC50) required 3 nM.

Compound `CCN(CC)CCN1C(=O)C(O)(c2ccc3ccccc3c2)c2ccccc21` (centres undefined) displayed an EC50 of more than 1000 nM.

`CCN(CC)CCN1C(=O)[C@](O)(c2cc3ccccc3cc2Cl)c2c1cc(C(N)=O)cc2C(F)(F)F` gave an EC50 of 210 nM.

Turning to `CCN(CC)CCN1C(=O)C(O)(c2ccc3ccccc3c2)c2c(C#CCO)cc(Cl)cc21` (centres undefined), the EC50 was more than 1000 nM.

The compound `CCN(CC)CCN1C(=O)C(O)(c2ccc3ccccc3c2)c2c1cc(C#CCO)cc2C(F)(F)F` (centres undefined) displayed an EC50 of 310 nM.

In the case of `CCN(CC)CCN1C(=O)C(O)(c2ccc3ccccc3c2)c2ccc(Br)cc21` (centres undefined), the EC50 is 380 nM.

`CCN(CC)CCN1C(=O)C(O)(c2ccc3ccccc3c2)c2c(Br)cccc21` (centres undefined): the EC50 is 77 nM. Against the preceding compound, the EC50 is about 4.9-fold lower.

In turn, `CCN(CC)CCN1C(=O)C(O)(c2ccc3ccccc3c2)c2cc(Br)ccc21` (centres undefined) registered an EC50 of more than 1000 nM.

These data come from ChEMBL document CHEMBL1134788, “Oxindole derivatives as orally active potent growth hormone secretagogues” (J Med Chem, 2001).
